According to patent publication US8389523B2, “Substituted quinoxaline and an agrochemical composition thereof” (Kumiai Chemical Industry Co., Ltd., priority 2007, dated 2013):

Key:
Format in all cases: in vivo
Design in all cases: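 grade 0 to 5 of growth suppression where 5 is 90% or more and 0 below 10%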
[1] = test system: Echinochloa oryzicola Vasing; experiment: Herbicidal effects in paddy field soil treatment (Test Example 1); conditions: paddy field soil treatment; 1000 g of the active ingredient per hectare; wettable powder added dropwise on water surface; 21st day after treatment
Protocol: (§1) Test for Herbicidal Effects in Paddy Field Soil Treatment
(§2) A 100-cm^2 plastic pot was filled with paddy field soil. After puddling and leveling, seeds of Echinochloa oryzicola Vasing, Monochoria vaginalis (Burm. f.) Presl var. plantaginea (Roxb.) Solms-Laub., and Scirpus juncoides Roxb. var. ohwianus. T. Koyama were sowed, and the soil was waterlogged to a water depth of 3 cm. On the next day, a wettable powder formulation prepared according to Preparation Example 1 was diluted with water, and was added dropwise on the water surface. The amount of application was an amount equivalent to 1000 g of the active ingredient per hectare. Thereafter, the plants were grown in a greenhouse, and on the 21st day after the treatment, the herbicidal effects were investigated according to the criteria described in Table 138.

[2] = test system: Monochoria vaginalis (Burm. f.) Presl var. plantaginea (Roxb.) Solms-Laub.; experiment: as above; conditions: paddy field soil treatment; 1000 g of the active ingredient per hectare; wettable powder added dropwise on water surface; 21st day after treatment
Protocol: as §1, §2

[3] = test system: Scirpus juncoides Roxb. var. ohwianus. T. Koyama; experiment: as above; conditions: paddy field soil treatment; 1000 g of the active ingredient per hectare; wettable powder added dropwise on water surface; 21st day after treatment
Protocol: as §1, §2

[4] = test system: Abutilon theophrasti medicus; experiment: Herbicidal effects in upland field soil treatment (Test Example 2); conditions: 1000 g active ingredient per hectare, 21st day after treatment, criteria of Table 138
Protocol: (§3) Test Example 2 Test on Herbicidal Effects in Upland Field Soil Treatment A 80-cm^2 plastic pot was filled with upland field soil. Seeds of Abutilon theophrasti medicus and Amaranthus viridis L. were sowed, and soil was covered. A wettable powder formulation prepared according to Preparation Example 1 was diluted with water, and was uniformly sprayed on the soil surface with a small sprayer, in an amount equivalent to 1000 liters per hectare, such that 1000 g of the active ingredient per hectare was applied. Thereafter, the plants were grown in a greenhouse, and on the 21st day after the treatment, the herbicidal effects were investigated according to the criteria described in the Table 138 shown above.

Amaranthus viridis L. = experiment: as above; conditions: 1000 g active ingredient per hectare, 21st day after treatment, criteria of Table 138
Protocol: as §3

SMILES | Herbicidal effects index, Echinochloa oryzicola Vasing [1] | Herbicidal effects index, Monochoria vaginalis (Burm. f.) Presl var. plantaginea (Roxb.) Solms-Laub. [2] | Herbicidal effects index, Scirpus juncoides Roxb. var. ohwianus. T. Koyama [3] | herbicidal effect (index) on Abutilon theophrasti medicus [4] | herbicidal effect (index) on Amaranthus viridis L. (Amaranthus viridis L.)
COc1ccc(-n2c(=O)c(C(=O)C3=C(O)CCCC3=O)nc3c(F)cccc32)cn1 [I-279] | 4 | 5 | 5 | 5 | 5
COc1ccc(-n2c(=O)c(C(=O)C3=C(O)CCCC3=O)nc3ccc(C)cc32)cc1 [II-247] | 4 | 5 | 5 | 5 | 5
COc1ccc(-n2c(=O)c(C(=O)C3=C(O)CCCC3=O)nc3c(C)cccc32)cc1 [II-245] | 5 | 5 | 5 | 5 | 5
O=C1CCCC(O)=C1C(=O)c1nc2ccccc2n(COc2ccccc2)c1=O [I-57] | 4 | 5 | 5 | 4 | 5
COc1ccc(-n2c(=O)c(C(=O)C3=C(O)CCCC3=O)nc3c(F)cc(F)cc32)cc1 [II-259] | 4 | 5 | 5 | 5 | 5
COc1ccc(-n2c(=O)c(C(=O)C3=C(O)CCCC3=O)nc3c(Cl)cccc32)cc1F [II-301] | 5 | 5 | 5 | 5 | 5
CSCn1c(=O)c(C(=O)C2=C(O)CCCC2=O)nc2cccnc21 [III-70] | 4 | 5 | 5 | 5 | 5
COc1ccc(-n2c(=O)c(C(=O)C3=C(O)CCCC3=O)nc3ccccc32)cc1C [II-180] | 5 | 5 | 5 | 4 | 5
O=C1CCCC(O)=C1C(=O)c1nc2cc(F)ccc2n(-c2ccc3c(c2)OCCO3)c1=O [II-240] | 4 | 5 | 5 | 5 | 5
Cc1ccc(-n2c(=O)c(C(=O)C3=C(O)CCCC3=O)nc3ccccc32)cc1Cl [II-216] | 5 | 5 | 5 | 4 | 5
O=C1CCCC(O)=C1C(=O)c1nc2c(F)cccc2n(-c2ccc3c(c2)OCCO3)c1=O [II-236] | 4 | 5 | 5 | 4 | 5
Cn1nc(C(F)(F)F)nc1-n1c(=O)c(C(=O)C2=C(O)CCCC2=O)nc2ccccc21 [I-165] | 5 | 5 | 5 | 5 | 5
Cc1ccc(-n2c(=O)c(C(=O)C3=C(O)CCCC3=O)nc3ccc(C)cc32)nc1 [I-368] | 4 | 5 | 5 | 5 | 5
COc1ccc2nc(C(=O)C3=C(O)CCCC3=O)c(=O)n(-c3ccc(C)cc3)c2c1 [II-306] | 5 | 5 | 5 | 5 | 5
O=C1CCCC(O)=C1C(=O)c1nc2ccccc2n(-c2ccc3c(c2)OCCO3)c1=O [I-209, 1-(2,3-dihydrobenzo[b]1,4-dioxin-6-yl)-3-(2-hydroxy-6-oxo-1-cyclohexenecarbonyl)-quinoxalin-2(1H)-one] | 4 | 5 | 5 | 4 | 5
COc1ccc(-n2c(=O)c(C(=O)C3=C(O)CCCC3=O)nc3c(Cl)cccc32)cn1 [I-379] | 5 | 5 | 5 | 5 | 5
Cn1c(=O)c(C(=O)C2=C(O)CCCC2=O)nc2c(Cl)cccc21 [I-223] | 4 | 5 | 5 | 5 | 5
COc1ccc2nc(C(=O)C3=C(O)CCCC3=O)c(=O)n(C)c2c1 [I-238] | 5 | 4 | 5 | 5 | 4
C=CCOc1ccc(-n2c(=O)c(C(=O)C3=C(O)CCCC3=O)nc3ccccc32)cc1 [II-81] | 5 | 5 | 5 | 5 | 5
COc1ccc(-n2c(=O)c(C(=O)C3=C(O)CCCC3=O)nc3c(Cl)cccc32)cc1 [II-194, 5-chloro-3-(2-hydroxy-6-oxo-1-cyclohexenecarbonyl)-1-(4-methoxyphenyl)-quinoxalin-2(1H)-one] | 4 | 5 | 5 | 4 | 5
